20 compounds from patent publication US9187465B2, “Oxazole tyrosine kinase inhibitors” (Sareum Limited, priority 2007, dated 2015) can be followed below.

Structures are written as SMILES.

What all share (assay type): biochemical
Experiment [1] concerns the target T1, human FLT3 (Homo sapiens, UniProt P36888).
T1 construct: a construct expressing the human FLT3 (564-993) with an amino terminal GST tag; host or cells: Sf9 insect cells (baculovirus)
T1 sequence (P36888 564-993): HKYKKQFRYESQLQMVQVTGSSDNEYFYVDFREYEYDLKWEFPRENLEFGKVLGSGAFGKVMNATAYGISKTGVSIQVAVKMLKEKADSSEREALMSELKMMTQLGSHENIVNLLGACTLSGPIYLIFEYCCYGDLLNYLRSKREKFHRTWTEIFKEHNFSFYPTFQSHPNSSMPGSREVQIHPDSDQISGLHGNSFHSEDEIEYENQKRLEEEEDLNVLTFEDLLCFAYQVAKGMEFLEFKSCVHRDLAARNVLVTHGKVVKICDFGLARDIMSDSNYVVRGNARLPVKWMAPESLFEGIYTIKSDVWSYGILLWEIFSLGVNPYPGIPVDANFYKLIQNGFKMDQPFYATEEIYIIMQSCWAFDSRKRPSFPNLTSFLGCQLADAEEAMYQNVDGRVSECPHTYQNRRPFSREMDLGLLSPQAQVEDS
The experiment in a line: FLT3 kinase assay (DELFIA enzyme inhibition). As to the method: A GST-kinase fusion protein of 70 KDa was produced using sf9 baculovirus expression system, with a construct expressing the human FLT3 (564-993) with an amino terminal GST tag. The protein was purified by one-step affinity chromatography using glutathione-agarose.
FLT3 enzyme activity is determined using a Dissociation Enhanced Lanthanide Fluorescent Immunoassay (DELFIA) with a peptide substrate derived from the Gastrin Precursor (Tyr 87) peptide […] with a core sequence: EAYGW.
The amount of phosphorylated peptide produced is detected by means of a phospho-Tyrosine specific Europium-labelled antibody using Time-Resolved Fluorescence at Excitation 360-35 nm and Emission 620-35 nm.
Assay reactions are set up in a 25 uL final volume on a 96 well plate. […] The reaction is allowed to proceed for 30 minutes at room temperature before stopping with 100 μL Stop solution comprising of 100 mM EDTA, 1×BSA blocker in TBS (Perbio) and 0.05% Surfact-Amps20 (Perbio).
The stopped reaction is transferred to a black 96-well Neutravidin-coated plate (Perbio) and incubated for 30 minutes to capture the biotinylated peptide substrate. After washing wells 3 times with 200 uL TBS/T buffer, Anti-Phospho-Tyr-100 antibody labelled with Eu—N1 (Perkin Elmer AD0159) is added to all wells for 60 minutes at room temperature. After a repeat washing step, DELFIA Enhancement solution (Perkin Elmer) is added to all wells for 5 minutes and the fluorescence measured on a plate reader Analyst HT (Molecular Devices).
The % inhibition of the activity is calculated and plotted in order to determine the concentration of test compound required to inhibit 50% of the enzyme activity (IC50).

The target of experiment [2] is T2, human FLT4 (Homo sapiens, UniProt P35916).
T2 construct: a construct expressing the human FLT4 (789-1207) with an amino terminal GST tag; host or cells: Sf9 insect cells (baculovirus)
T2 sequence (P35916 789-1207): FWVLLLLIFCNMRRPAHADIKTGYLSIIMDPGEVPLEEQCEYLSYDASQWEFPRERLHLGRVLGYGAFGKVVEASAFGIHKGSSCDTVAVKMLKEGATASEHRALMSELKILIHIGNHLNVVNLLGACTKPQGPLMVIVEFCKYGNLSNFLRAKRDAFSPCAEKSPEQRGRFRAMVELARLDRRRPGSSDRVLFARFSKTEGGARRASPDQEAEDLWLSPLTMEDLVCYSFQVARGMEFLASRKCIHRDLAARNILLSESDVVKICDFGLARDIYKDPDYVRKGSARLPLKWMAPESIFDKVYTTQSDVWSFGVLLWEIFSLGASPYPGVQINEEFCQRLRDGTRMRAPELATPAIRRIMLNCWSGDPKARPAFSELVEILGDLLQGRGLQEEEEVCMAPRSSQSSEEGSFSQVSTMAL
The experiment in a line: FLT4 kinase assay (DELFIA enzyme inhibition). Conditions: read-out: FLT4 IC50. In short, it runs like this: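 GST-tagged human FLT4 (789-1207) from Sf9 cells phosphorylates a biotinylated MET (Tyr1253)-derived peptide for 30 min at room temperature, stopped with EDTA. Phosphopeptide is captured on Neutravidin and detected with Eu-labelled anti-phosphotyrosine antibody by time-resolved fluorescence; IC50 from % inhibition curves.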

Experiment [3] addresses T3, human Aurora A (Homo sapiens, UniProt O14965).
T3 construct: Histidine tag (N); host or cells: Sf9 insect cells (baculovirus)
T3 sequence (O14965 1-403): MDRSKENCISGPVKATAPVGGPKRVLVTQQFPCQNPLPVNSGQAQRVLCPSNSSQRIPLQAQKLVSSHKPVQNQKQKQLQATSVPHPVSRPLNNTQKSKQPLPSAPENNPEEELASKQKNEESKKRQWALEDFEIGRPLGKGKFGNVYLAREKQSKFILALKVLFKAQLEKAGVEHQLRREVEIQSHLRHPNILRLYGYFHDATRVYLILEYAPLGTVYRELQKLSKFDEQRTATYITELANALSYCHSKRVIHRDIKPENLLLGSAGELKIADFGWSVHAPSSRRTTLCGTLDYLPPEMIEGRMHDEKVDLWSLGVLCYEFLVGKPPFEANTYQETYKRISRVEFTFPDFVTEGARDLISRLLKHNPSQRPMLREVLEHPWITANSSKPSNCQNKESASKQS
The experiment in a line: Aurora A kinase assay (DELFIA enzyme inhibition). The conditions noted are these: read-out: Aurora A IC50. Put shortly:
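DELFIA read-out (time-resolved Eu fluorescence, 620 nm emission) after Neutravidin capture of biotinylated peptide substrate and antibody detection. Reaction: Ni-agarose-purified Aurora A, 30 min at room temperature, stopped with 100 mM EDTA.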

As usually defined, the IC50 is the point on the concentration scale where inhibition reaches its midpoint. Take `NC(=O)c1nc(-c2c(Cl)cccc2Cl)oc1-c1ccc(OCCN2CCCCC2)cc1` [Example F-25, 2-(2,6-dichlorophenyl)-5-(4-(2-(piperidin-1-yl)ethoxy)phenyl)oxazole-4-carboxamide]: the 50% inhibitory concentration (IC50) in experiment [1], in experiment [2] and in experiment [3] was less than 10 µM throughout.

Turning to `NC(=O)c1nc(-c2c(F)cccc2F)oc1Nc1ccc(C(=O)N2CCC[C@H]2CO)cc1` [Example U-13, (S)-2-(2,6-difluorophenyl)-5-(4-(2-(hydroxymethyl)pyrrolidine-1-carbonyl)phenylamino)oxazole-4-carboxamide], the IC50 in experiment [1], in experiment [2] and in experiment [3] was less than 10 µM each time.

For `NC(=O)c1nc(Nc2cnn(Cc3ccccc3)c2)oc1-c1ccc(N2CCNCC2)cc1` [Example R-17, 2-(1-benzyl-1H-pyrazol-4-ylamino)-5-(4-(piperazin-1-yl)phenyl)oxazole-4-carboxamide], the IC50 in experiment [1], in experiment [2] and in experiment [3] was less than 10 µM throughout.

Turning to `CN(CCO)CCOc1ccc(-c2oc(-c3c(F)cccc3F)nc2C(N)=O)cc1` [Example S-8, 2-(2,6-difluorophenyl)-5-(4-(2-((2-hydroxyethyl)(methyl)amino)ethoxy)phenyl)oxazole-4-carboxamide], the IC50 in experiment [1], in experiment [2] and in experiment [3] was less than 10 µM throughout.

Take `NCC1CN(C(=O)c2ccc(Nc3oc(-c4c(F)cccc4F)nc3C(N)=O)cc2)CCO1` (stereo not drawn) [Example U-23, 5-(4-(2-(aminomethyl)morpholine-4-carbonyl)phenylamino)-2-(2,6-difluorophenyl) oxazole-4-carboxamide]: the IC50 in experiment [1], in experiment [2] and in experiment [3] was less than 10 µM throughout.

Regarding `Cc1cccc(C)c1-c1nc(C(N)=O)c(Nc2ccc(N3CCNCC3)cc2)o1` [Example Q-37, 2-(2,6-dimethylphenyl)-5-(4-(piperazin-1-yl)phenylamino)oxazole-4-carboxamide], the IC50 in experiment [1], in experiment [2] and in experiment [3] was less than 10 µM each time.

Turning to `NC(=O)c1nc(-c2c(F)cccc2F)oc1Nc1ccc(-n2cnnn2)cc1` [Example Q-31, 5-(4-(1H-tetrazol-1-yl)phenylamino)-2-(2,6-difluorophenyl)oxazole-4-carboxamide], the 50% inhibitory concentration (IC50) in experiment [1], in experiment [2] and in experiment [3] was less than 10 µM each time.

On to `CN1CCN(C(=O)c2ccc(Nc3oc(-c4c(F)cccc4F)nc3C(N)=O)cc2)CC1CO` (stereo not drawn) [Example U-25, 2-(2,6-difluorophenyl)-5-(4-(2-(hydroxymethyl)-1-methylpiperazine-4-carbonyl)phenylamino)oxazole-4-carboxamide], for which the IC50 in experiment [1], in experiment [2] and in experiment [3] was less than 10 µM each time.

In the case of `CC(=O)N1CCN(c2ccc(-c3oc(-c4c(F)cccc4F)nc3C(N)=O)cc2)CC1` [Example I-1, 5-(4-(4-acetylpiperazin-1-yl)phenyl)-2-(2,6-difluorophenyl)oxazole-4-carboxamide], the 50% inhibitory concentration (IC50) in experiment [1], in experiment [2] and in experiment [3] was less than 10 µM in each case.

As to `CNCCC(=O)Nc1ccc(Nc2oc(-c3c(F)cccc3F)nc2C(N)=O)cc1` [Example V-3, 2-(2,6-difluorophenyl)-5-(4-(3-(methylamino)propanamido)phenylamino)oxazole-4-carboxamide], the IC50 in experiment [1], in experiment [2] and in experiment [3] was less than 10 µM in each case.

As to `NC(=O)c1nc(-c2c(F)cccc2F)oc1Nc1ccc(OC2CCNCC2)cc1` [Example Q-16, 2-(2,6-difluorophenyl)-5-(4-(piperidin-4-yloxy)phenylamino)oxazole-4-carboxamide], the IC50 in experiment [1], in experiment [2] and in experiment [3] was less than 10 µM throughout.

Turning to `NC(=O)c1nc(-c2c(F)cccc2F)oc1Nc1cccc(N2CCOCC2)c1` [Example Q-2, 2-(2,6-difluorophenyl)-5-(3-morpholinophenylamino)oxazole-4-carboxamide], the IC50 in experiment [1], in experiment [2] and in experiment [3] was less than 10 µM in each case.

With `COc1ccc(-c2oc(-c3cccc4[nH]ccc34)nc2C(N)=O)cc1` [Example M-4, 2-(1H-indol-4-yl)-5-(4-methoxyphenyl)oxazole-4-carboxamide], the half-inhibitory concentration (IC50) was less than 10 µM in experiment [1], less than 10 µM in experiment [2] and less than 100 µM in experiment [3].

Take `NC(=O)c1nc(-c2c(F)cccc2F)oc1Nc1ccc(N2CCCNCC2)cc1` [Example Q-15, 5-(4-(1,4-diazepan-1-yl)phenylamino)-2-(2,6-difluorophenyl)oxazole-4-carboxamide]: the IC50 in experiment [1], in experiment [2] and in experiment [3] was less than 10 µM throughout.

Take `CNS(=O)(=O)c1ccc(Nc2oc(-c3c(F)cccc3F)nc2C(N)=O)cc1` [Example Q-27, 2-(2,6-difluorophenyl)-5-(4-(N′-methylsulfonamide)phenylamino)oxazole-4-carboxamide]: the concentration for half-maximal inhibition (IC50) in experiment [1], in experiment [2] and in experiment [3] was less than 10 µM throughout.

Take `NC(=O)c1nc(-c2c(F)cccc2F)oc1Nc1ccc(C(=O)N2CCCCC2)cc1` [Example Q-21, 2-(2,6-difluorophenyl)-5-(4-(piperidine-1-carbonyl)phenylamino)oxazole-4-carboxamide]: the 50% inhibitory concentration (IC50) in experiment [1], in experiment [2] and in experiment [3] was less than 10 µM each time.

`NC(=O)c1nc(-c2cccc3[nH]ncc23)oc1Nc1ccc(N2CCN(C(=O)C(F)(F)F)CC2)cc1` [Example Q-60, 2-(1H-indazol-4-yl)-5-(4-(4-(2,2,2-trifluoroacetyl)piperazin-1-yl)phenylamino)oxazole-4-carboxamide]: the IC50 in experiment [1], in experiment [2] and in experiment [3] was less than 10 µM throughout.

On to `NC(=O)c1nc(-c2c(F)cccc2F)oc1Nc1ccc(C(=O)NCC2CN(Cc3ccccc3)CCO2)cc1` (stereo not drawn) [Example U-5, 5-(4-(((4-benzylmorpholin-2-yl)methyl)carbamoyl)phenylamino)-2-(2,6-difluorophenyl)oxazole-4-carboxamide], for which the half-inhibitory concentration (IC50) in experiment [1], in experiment [2] and in experiment [3] was less than 10 µM throughout.

For `NC(=O)c1nc(-c2c(F)cccc2F)oc1-c1ccc(OCCN2CCC[C@@H]2CO)cc1` [Example S-6, (R)-2-(2,6-difluorophenyl)-5-(4-(2-(2-(hydroxymethyl)pyrrolidin-1-yl)ethoxy)phenyl)oxazole-4-carboxamide], the IC50 in experiment [1], in experiment [2] and in experiment [3] was less than 10 µM each time.

Regarding `NC(=O)c1nc(-c2c(F)cccc2F)oc1Nc1ccc(C(=O)N2CCOCC2CO)cc1` (stereo not drawn) [Example U-19, 2-(2,6-difluorophenyl)-5-(4-(3-(hydroxymethyl)morpholine-4-carbonyl)phenylamino)oxazole-4-carboxamide], the IC50 in experiment [1], in experiment [2] and in experiment [3] was less than 10 µM each time.
